Active and inactive are the calls of the source. No cut-off for these calls is given here.
What was measured:
[1] = molecular target: 5-hydroxytryptamine receptor 1B (Rattus norvegicus) (UniProt P28564); experiment: Inhibitor of 5HT1B/R in the Eurofins SafetyScreen44 (BI) by Radioactive Assay (Old_Cerep_1); conditions: Compound concentration 10.0 uM
[2] = molecular target: Small conductance calcium-activated potassium channel protein 1 (Rattus norvegicus) (UniProt P70606); experiment: Inhibitor of K+/CA+/R in the Eurofins SafetyScreen44 (BI) by Radioactive Assay (Old_Cerep_23); conditions: Compound concentration 10.0 uM
[3] = molecular target: Calcitonin-gene-related peptide receptor, CALCRL/RAMP1 (Homo sapiens) (UniProt O60894+Q16602); experiment: Agonist activity in the Eurofins SafetyScreen44 (BI) against CGRP/H by Scintillation counting (Old_Cerep_15); assay type: protein-complex assay
[4] = molecular target: Pituitary adenylate cyclase-activating polypeptide type I receptor (Homo sapiens) (UniProt P41586); experiment: Activity against PACAP/HU in the Eurofins SafetyScreen44 (BI) by Radioactive Assay (Old_Cerep_31); conditions: Compound concentration 10.0 uM
[5] = molecular target: 5-hydroxytryptamine receptor 5A (Homo sapiens) (UniProt P47898); experiment: Activity against 5HT5A/H in the Eurofins SafetyScreen44 (BI) by Radioactive Assay (Old_Cerep_2); conditions: Compound concentration 10.0 uM
[6] = molecular target: Tumor necrosis factor receptor superfamily member 1A (Homo sapiens) (UniProt P19438); experiment: TNF-alpha Eurofins-Cerep binding assay; conditions: Compound concentration 10.0 uM
[7] = molecular target: B2 bradykinin receptor (Homo sapiens) (UniProt P30411); experiment: Activity against B2/HUM in the Eurofins SafetyScreen44 (BI) by Radioactive Assay (Old_Cerep_8)
[8] = molecular target: Neuropeptide Y receptor type 1 (Homo sapiens) (UniProt P25929); experiment: Y1 Eurofins-Cerep binding assay; parameters: ligand concentration 0.025 nM; conditions: Compound concentration 10.0 uM
[9] = molecular target: Neuromedin-K receptor (Homo sapiens) (UniProt P29371); experiment: Agonist activity in the Eurofins SafetyScreen44 (BI) against NK3/H by Radioligand Binding (Old_Cerep_26); conditions: Compound concentration 10.0 uM
[10] = molecular target: Melanocortin receptor 4 (Homo sapiens) (UniProt P32245); experiment: MC4 Eurofins-Cerep binding assay; parameters: ligand concentration 0.05 nM; conditions: Compound concentration 10.0 uM
[11] = molecular target: Melatonin receptor type 1A (Homo sapiens) (UniProt P48039); experiment: MT1 (ML1A) Eurofins-Cerep binding assay; parameters: ligand concentration 0.01 nM; conditions: Compound concentration 10.0 uM
[12] = molecular target: Kappa-type opioid receptor (Rattus norvegicus) (UniProt P34975); experiment: Inhibitor of KAPPA/R in the Eurofins SafetyScreen44 (BI) by Radioactive Assay (Old_Cerep_24); conditions: Compound concentration 10.0 uM
[13] = molecular target: Gastrin/cholecystokinin type B receptor (Homo sapiens) (UniProt P32239); experiment: Activity against CCKB/H in the Eurofins SafetyScreen44 (BI) by Radioactive Assay (Old_Cerep_13); conditions: Compound concentration 10.0 uM
Homo sapiens [14] = organism: Homo sapiens; experiment: sigma (non-selective) Eurofins-Cerep binding assay; assay type: protein assay; conditions: Compound concentration 10.0 uM
[15] = molecular target: Sodium-dependent serotonin transporter (Homo sapiens) (UniProt P31645); experiment: Activity against 5HTTRANS/H in the Eurofins SafetyScreen44 (BI) by Radioactive Assay (Old_Cerep_4); conditions: Compound concentration 10.0 uM
[16] = molecular target: Galanin receptor type 2 (Homo sapiens) (UniProt O43603); experiment: Inhibitor of GAL2/H in the Eurofins SafetyScreen44 (BI) by Radioactive Assay (Old_Cerep_22); conditions: Compound concentration 10.0 uM
Rattus norvegicus = organism: Rattus norvegicus; experiment: BZD (central) Eurofins-Cerep binding assay; conditions: Compound concentration 10.0 uM
[17] = molecular target: L-type calcium channel (Cav1.2, alpha-1C), CA+/VERSI/R (Rattus norvegicus, UniProt P22002); experiment: Inhibitor of CA+/VERSI/R in the Eurofins SafetyScreen44 (BI) by Radioactive Assay (Old_Cerep_11); parameters: scale not given: the % may be the effect or the level left; conditions: compound concentration 10 uM, read-out: % Ctrl
[18] = molecular target: Substance-P receptor (Homo sapiens) (UniProt P25103); experiment: NK1 Eurofins-Cerep binding assay; conditions: Compound concentration 10.0 uM
Neutrophil elastase = Neutrophil elastase (Mus musculus, UniProt Q3UP87); experiment: ELANE inhibitor assay (mouse)
[19] = molecular target: C-X-C chemokine receptor type 2 (Homo sapiens) (UniProt P25025); experiment: CXCR2 (IL-8B) Eurofins-Cerep binding assay; conditions: Compound concentration 10.0 uM
[20] = molecular target: Nociceptin receptor (Homo sapiens) (UniProt P41146); experiment: Activity against ORL1/H in the Eurofins SafetyScreen44 (BI) by Radioactive Assay (Old_Cerep_28); conditions: Compound concentration 10.0 uM
[21] = molecular target: Type-2 angiotensin II receptor (Homo sapiens) (UniProt P50052); experiment: Activity against AT2/H in the Eurofins SafetyScreen44 (BI) by Radioactive Assay (Old_Cerep_7)
[22] = molecular target: D(1B) dopamine receptor (Homo sapiens) (UniProt P21918); experiment: Activity against D5/H in the Eurofins SafetyScreen44 (BI) by Radioactive Assay (Old_Cerep_17); conditions: Compound concentration 10.0 uM
[23] = molecular target: Muscarinic acetylcholine receptor M5 (Homo sapiens) (UniProt P08912); experiment: M5 Eurofins-Cerep binding assay; conditions: Compound concentration 10.0 uM
[24] = molecular target: Prostaglandin E2 receptor EP2 subtype (Homo sapiens) (UniProt P43116); experiment: Agonist activity in the Eurofins SafetyScreen44 (BI) against EP2(H) by Scintillation counting (Old_Cerep_18); conditions: Compound concentration 10.0 uM
[25] = molecular target: Somatostatin receptor type 5 (Mus musculus) (UniProt O08858); experiment: Activity against SOMATOS/M in the Eurofins SafetyScreen44 (BI) by Radioactive Assay (Old_Cerep_36); conditions: Compound concentration 10.0 uM
[26] = molecular target: Adenosine receptor A3 (Homo sapiens) (UniProt P0DMS8); experiment: A3 Eurofins-Cerep binding assay; parameters: ligand concentration 0.15 nM
[27] = molecular target: Tyrosine-protein kinase Lck (Homo sapiens) (UniProt P06239); experiment: Inhibitor of LCK_CE in the Eurofins Cerep SafetyScreen44 (BI) by lanthanide chelation excitation (Cerep_2906); conditions: Compound concentration 10.0 uM
[28] = molecular target: Alpha-2A adrenergic receptor (Homo sapiens) (UniProt P08913); experiment: Inhibitor of ALPHA2A/HU in the Eurofins Cerep SafetyScreen44 (BI) by Radioactive Assay (Cerep_13); conditions: Compound concentration 10.0 uM
hERG (KCNH2) = hERG (KCNH2) (Homo sapiens, UniProt Q12809); experiment: Inhibitor of HERG_DOFETILIDE in the Eurofins Cerep SafetyScreen44 (BI) by Scintillation counting (Cerep_4094); parameters: scale not given: the % may be the effect or the level left; conditions: probe [3H]dofetilide, compound concentration 10 uM, read-out: % Ctrl
[29] = molecular target: MAO-A (amine oxidase [flavin-containing] A) (Homo sapiens, UniProt P21397); experiment: Agonist activity in the Eurofins Cerep SafetyScreen44 (BI) against MAO-A_ANTAG by Scintillation counting (Cerep_443); parameters: scale not given: the % may be the effect or the level left; conditions: rat; compound concentration 10 uM; target entry is the homologue from another species; read-out: % Ctrl
[30] = molecular target: Cannabinoid receptor 2 (Homo sapiens) (UniProt P34972); experiment: Activity against CB2/PERIPH/H in the Eurofins Cerep SafetyScreen44 (BI) by Radioactive Assay (Cerep_37); conditions: Compound concentration 10.0 uM
Homo sapiens [31] = organism: Homo sapiens; experiment: Agonist activity in the Eurofins Cerep SafetyScreen44 (BI) against N_NEURO_A4B2 by Radioligand Binding (Cerep_3029); assay type: protein-complex assay; conditions: Compound concentration 10.0 uM
[32] = molecular target: Androgen receptor (Homo sapiens) (UniProt P10275); conditions: Compound concentration 10.0 uM
Description: Activity against ANDROGEN/H in the Eurofins Cerep SafetyScreen44 (BI) by Radioactive Assay (Cerep_933)

[33] = molecular target: Sodium-dependent serotonin transporter (Homo sapiens) (UniProt P31645); experiment: 5-HT transporter Eurofins-Cerep binding assay; parameters: ligand concentration 2 nM; conditions: Compound concentration 10.0 uM
[34] = molecular target: Kappa-type opioid receptor (Homo sapiens) (UniProt P41145); experiment: kappa (KOP) Eurofins-Cerep binding assay; conditions: Compound concentration 10.0 uM

Sequence of B2 bradykinin receptor (Homo sapiens) (P30411 whole entry): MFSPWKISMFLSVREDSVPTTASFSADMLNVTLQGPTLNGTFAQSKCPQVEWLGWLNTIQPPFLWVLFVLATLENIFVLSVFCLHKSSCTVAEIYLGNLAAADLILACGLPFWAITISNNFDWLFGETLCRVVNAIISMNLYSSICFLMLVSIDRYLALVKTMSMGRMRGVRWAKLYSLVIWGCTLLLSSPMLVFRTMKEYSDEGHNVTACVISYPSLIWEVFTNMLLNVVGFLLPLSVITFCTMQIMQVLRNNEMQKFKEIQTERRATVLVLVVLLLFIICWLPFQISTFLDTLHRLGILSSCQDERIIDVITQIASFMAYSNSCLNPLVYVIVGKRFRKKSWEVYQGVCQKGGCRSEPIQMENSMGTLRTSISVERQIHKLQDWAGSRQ
Sequence of Adenosine receptor A3 (Homo sapiens) (P0DMS8 whole entry): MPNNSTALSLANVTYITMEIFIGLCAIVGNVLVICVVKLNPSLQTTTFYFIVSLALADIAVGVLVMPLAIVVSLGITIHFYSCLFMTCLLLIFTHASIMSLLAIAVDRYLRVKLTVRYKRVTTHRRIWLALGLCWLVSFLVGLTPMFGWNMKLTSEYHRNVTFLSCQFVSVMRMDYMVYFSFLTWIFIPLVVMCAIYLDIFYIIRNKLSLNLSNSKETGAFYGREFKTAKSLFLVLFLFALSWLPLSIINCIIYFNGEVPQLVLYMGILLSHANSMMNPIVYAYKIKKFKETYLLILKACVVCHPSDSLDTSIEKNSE
Sequence of Sodium-dependent serotonin transporter (Homo sapiens) (P31645 whole entry, looked up): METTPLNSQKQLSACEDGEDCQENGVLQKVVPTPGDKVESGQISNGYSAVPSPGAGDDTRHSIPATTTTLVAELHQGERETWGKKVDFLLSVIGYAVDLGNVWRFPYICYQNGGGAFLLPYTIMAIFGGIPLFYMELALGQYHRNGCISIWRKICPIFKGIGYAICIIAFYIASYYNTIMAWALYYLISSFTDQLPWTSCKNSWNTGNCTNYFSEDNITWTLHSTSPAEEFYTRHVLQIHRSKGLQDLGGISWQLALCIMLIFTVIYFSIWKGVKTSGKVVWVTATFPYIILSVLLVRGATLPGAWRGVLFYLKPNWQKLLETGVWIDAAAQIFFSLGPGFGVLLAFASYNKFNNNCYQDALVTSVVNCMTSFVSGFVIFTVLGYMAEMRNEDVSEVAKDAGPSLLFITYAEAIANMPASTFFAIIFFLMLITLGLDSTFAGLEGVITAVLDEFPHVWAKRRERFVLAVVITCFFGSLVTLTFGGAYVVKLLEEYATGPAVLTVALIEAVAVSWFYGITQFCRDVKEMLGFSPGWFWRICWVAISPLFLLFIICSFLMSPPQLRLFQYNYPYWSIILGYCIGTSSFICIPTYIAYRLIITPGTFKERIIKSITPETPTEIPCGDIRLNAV
Sequence of Type-2 angiotensin II receptor (Homo sapiens) (P50052 whole entry): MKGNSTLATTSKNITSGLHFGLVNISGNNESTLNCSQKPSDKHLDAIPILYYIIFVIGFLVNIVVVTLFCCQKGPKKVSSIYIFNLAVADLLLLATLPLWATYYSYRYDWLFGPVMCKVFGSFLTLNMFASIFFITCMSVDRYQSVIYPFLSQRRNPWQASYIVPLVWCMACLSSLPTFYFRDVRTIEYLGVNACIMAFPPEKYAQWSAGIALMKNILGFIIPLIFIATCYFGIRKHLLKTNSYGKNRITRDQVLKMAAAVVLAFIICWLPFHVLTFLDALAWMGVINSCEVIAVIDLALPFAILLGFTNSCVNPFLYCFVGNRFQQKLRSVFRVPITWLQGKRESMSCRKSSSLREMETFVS
Sequence of D(1B) dopamine receptor (Homo sapiens) (P21918 whole entry): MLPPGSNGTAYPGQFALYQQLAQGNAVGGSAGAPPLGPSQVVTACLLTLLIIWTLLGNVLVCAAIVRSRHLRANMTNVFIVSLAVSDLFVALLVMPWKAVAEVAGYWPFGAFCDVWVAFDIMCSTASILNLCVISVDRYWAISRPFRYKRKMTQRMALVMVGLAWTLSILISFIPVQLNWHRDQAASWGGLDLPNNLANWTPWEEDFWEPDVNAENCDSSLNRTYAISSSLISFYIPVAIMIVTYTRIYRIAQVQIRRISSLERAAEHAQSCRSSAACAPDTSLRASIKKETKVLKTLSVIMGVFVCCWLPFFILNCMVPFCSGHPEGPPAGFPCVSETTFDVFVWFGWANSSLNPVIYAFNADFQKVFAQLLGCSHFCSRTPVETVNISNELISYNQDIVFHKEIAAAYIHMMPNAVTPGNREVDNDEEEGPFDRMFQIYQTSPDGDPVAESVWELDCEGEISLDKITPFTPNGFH
Sequence of Neuromedin-K receptor (Homo sapiens) (P29371 whole entry): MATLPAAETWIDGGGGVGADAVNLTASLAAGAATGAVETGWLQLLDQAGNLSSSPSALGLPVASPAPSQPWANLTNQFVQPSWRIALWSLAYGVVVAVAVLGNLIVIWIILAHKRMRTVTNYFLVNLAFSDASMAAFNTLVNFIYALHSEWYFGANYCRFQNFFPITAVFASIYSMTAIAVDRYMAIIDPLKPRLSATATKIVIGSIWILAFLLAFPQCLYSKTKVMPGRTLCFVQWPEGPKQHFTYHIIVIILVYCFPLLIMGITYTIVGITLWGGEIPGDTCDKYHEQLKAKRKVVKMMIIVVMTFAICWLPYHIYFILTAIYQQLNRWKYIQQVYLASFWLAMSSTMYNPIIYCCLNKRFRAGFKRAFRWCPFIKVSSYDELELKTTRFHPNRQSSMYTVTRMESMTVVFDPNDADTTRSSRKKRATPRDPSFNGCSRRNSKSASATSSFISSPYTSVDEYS
Sequence of Alpha-2A adrenergic receptor (Homo sapiens) (P08913 whole entry): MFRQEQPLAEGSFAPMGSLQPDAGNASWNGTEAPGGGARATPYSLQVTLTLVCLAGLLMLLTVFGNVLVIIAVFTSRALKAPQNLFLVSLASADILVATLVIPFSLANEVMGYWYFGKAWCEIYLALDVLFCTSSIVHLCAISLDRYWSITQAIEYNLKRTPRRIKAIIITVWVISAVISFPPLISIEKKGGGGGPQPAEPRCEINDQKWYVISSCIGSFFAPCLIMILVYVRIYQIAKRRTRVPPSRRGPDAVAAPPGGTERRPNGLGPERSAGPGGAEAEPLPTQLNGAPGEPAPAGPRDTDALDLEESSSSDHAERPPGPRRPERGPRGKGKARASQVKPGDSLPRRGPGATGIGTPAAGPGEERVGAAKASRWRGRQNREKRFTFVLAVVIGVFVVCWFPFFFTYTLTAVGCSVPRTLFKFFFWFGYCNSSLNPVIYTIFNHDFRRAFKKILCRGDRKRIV
Sequence of 5-hydroxytryptamine receptor 1B (Rattus norvegicus) (P28564 whole entry): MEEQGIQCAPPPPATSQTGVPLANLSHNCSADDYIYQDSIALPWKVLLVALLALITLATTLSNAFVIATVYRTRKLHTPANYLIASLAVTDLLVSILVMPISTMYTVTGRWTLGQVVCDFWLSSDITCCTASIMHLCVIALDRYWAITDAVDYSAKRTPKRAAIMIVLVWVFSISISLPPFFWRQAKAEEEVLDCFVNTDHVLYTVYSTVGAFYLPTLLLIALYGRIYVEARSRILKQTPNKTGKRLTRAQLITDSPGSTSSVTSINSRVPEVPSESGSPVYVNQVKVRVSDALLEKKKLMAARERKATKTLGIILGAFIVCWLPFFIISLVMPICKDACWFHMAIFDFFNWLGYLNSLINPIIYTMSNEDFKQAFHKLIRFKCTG
Sequence of Small conductance calcium-activated potassium channel protein 1 (Rattus norvegicus) (P70606 whole entry): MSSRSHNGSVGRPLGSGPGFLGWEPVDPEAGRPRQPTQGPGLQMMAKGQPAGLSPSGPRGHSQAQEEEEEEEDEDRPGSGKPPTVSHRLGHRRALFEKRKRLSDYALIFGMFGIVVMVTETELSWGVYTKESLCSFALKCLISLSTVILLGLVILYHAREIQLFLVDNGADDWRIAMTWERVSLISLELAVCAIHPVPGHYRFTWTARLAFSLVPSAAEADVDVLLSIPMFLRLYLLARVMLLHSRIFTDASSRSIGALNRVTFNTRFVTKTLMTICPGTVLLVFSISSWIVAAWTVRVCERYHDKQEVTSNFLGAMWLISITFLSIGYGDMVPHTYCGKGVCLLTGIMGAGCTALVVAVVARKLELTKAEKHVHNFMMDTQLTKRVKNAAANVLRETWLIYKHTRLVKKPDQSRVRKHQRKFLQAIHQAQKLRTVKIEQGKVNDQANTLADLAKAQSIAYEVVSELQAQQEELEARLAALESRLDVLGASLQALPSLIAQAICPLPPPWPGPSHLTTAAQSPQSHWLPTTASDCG
Sequence of Gastrin/cholecystokinin type B receptor (Homo sapiens) (P32239 whole entry): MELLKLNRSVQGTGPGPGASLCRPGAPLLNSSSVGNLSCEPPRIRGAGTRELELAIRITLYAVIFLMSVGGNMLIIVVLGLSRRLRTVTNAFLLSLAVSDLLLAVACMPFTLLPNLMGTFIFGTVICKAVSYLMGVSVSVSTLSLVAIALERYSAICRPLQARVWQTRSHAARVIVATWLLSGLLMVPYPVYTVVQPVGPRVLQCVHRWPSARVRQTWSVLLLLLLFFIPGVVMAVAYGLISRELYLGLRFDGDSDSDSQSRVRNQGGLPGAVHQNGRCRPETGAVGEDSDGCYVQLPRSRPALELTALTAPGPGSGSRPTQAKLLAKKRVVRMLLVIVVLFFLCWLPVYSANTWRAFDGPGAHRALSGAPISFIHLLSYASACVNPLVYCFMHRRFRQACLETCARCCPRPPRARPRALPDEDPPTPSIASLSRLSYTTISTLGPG
Sequence of Tumor necrosis factor receptor superfamily member 1A (Homo sapiens) (P19438 whole entry): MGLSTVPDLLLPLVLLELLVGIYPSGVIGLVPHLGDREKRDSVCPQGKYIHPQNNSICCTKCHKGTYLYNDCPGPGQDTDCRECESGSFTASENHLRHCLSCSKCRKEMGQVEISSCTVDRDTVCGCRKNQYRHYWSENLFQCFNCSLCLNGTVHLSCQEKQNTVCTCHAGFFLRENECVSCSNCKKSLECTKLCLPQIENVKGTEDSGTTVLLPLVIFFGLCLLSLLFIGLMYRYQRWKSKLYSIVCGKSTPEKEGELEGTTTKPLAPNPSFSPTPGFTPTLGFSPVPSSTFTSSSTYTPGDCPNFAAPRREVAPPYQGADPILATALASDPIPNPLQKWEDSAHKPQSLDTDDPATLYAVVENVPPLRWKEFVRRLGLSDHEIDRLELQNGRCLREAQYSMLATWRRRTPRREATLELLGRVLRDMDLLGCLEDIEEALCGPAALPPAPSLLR

Compound `CC(C)(O)CNC(=O)N1C(=O)N(c2cccc(C(F)(F)F)c2)C2=C(C(=O)CC2)[C@H]1c1ccc(C#N)cc1` has a residual activity [1] of 136%, a residual activity [2] of 97% and a residual activity ([3]; Compound concentration 10.0 uM) of 108%. It also gave a residual activity ([3]; Compound concentration 30.0 uM) of 113%, a residual activity [4] of 122% and a residual activity [5] of 98%. For the same compound, the residual activity [6] was 115%, the residual activity ([7]; Compound concentration 10.0 uM) was 107% and the residual activity ([7]; Compound concentration 30.0 uM) was 97%. The residual activity [8] was 107%, the residual activity [9] was 102% and the residual activity [10] was 92%. It also gave a residual activity [11] of 105%, a residual activity [12] of 65% and a residual activity [13] of 106%. It also gave a residual activity (Homo sapiens [14]) of 72%, a residual activity [15] of 108% and a residual activity [16] of 114%. The residual activity (Rattus norvegicus) was 111%, the activity at 10 µM [17] was 102% (not active) and the residual activity [18] was 115%. The IC50 (Neutrophil elastase) was 12 nM (active), the residual activity [19] was 105% and the residual activity [20] was 95%. For the same compound, the residual activity ([21]; Compound concentration 10.0 uM) was 92%, the residual activity ([21]; Compound concentration 30.0 uM) was 114% and the residual activity [22] was 103%. The residual activity [23] was 92%, the residual activity [24] was 93% and the residual activity [25] was 114%. It also gave a residual activity ([26]; Compound concentration 10.0 uM) of 92% and a residual activity ([26]; Compound concentration 30.0 uM) of 80%.

In the case of `CC(C)(O)CNC(=O)N1C(=O)N(c2cccc(C(F)(F)F)c2)C2=C(C(=O)CC2)[C@@H]1c1ccc(C#N)cc1`, the residual activity [27] is reported as 92%, the residual activity [28] is reported as 98% and the activity at 10 µM (hERG (KCNH2)) is reported as 96% (not active). For the same compound, the activity at 10 µM [29] was 101% (not active), the residual activity [30] was 83% and the residual activity (Homo sapiens [31]) was 115%. The residual activity [32] was 101%, the residual activity [33] was 105% and the residual activity [34] was 94%.

From ChEMBL document CHEMBL5463722, “Data for DCP probe BI-5524” (2023)
